Laboratory results from patent US6465625B1, “Taxol derivatives” (Albany Molecular Research, Inc., priority 1995, dated 2002).

How the values were obtained:
solubility in water = conditions: for solubility greater than that of taxol: relative to taxol, rounded figures of b160; for increase of water solubility relative to taxol: relative to taxol (<4 μg/ml)
[1] = test system: MOLT-4 cells, a lymphoblastic leukemia cell line; test: cytotoxicity against MOLT-4 cells (trypan blue exclusion, cell counts after 72 h); assay type: cell-based; conditions: 100 nM to 0.1 nM, 0.5% DMSO
Method: (§1) 18. To verify their potential as prodrugs, two taxol esters, taxol 2′-chloroacetate (2) and taxol 2′-acrylate (3), were tested for cytotoxicity against HL-60 cells, a promyelocytic leukemia cell line, and MOLT-4 cells, a lymphoblastic leukemia cell line.^20 Both derivatives had IC50 values about ten times higher than that of taxol for each cell line.
(§2) 20. Cells were seeded in 96-well plates at densities of 30,000 cells/well and grown in RPMI-1640 medium containing 10% bovine calf serum at 37° C. for 24 h. The medium was then replaced with fresh medium containing the taxol esters (excluding taxol, which had been removed by preparative TLC) dissolved in DMSO at final concentrations ranging from 100 nM to 0.1 nM. The final concentration of DMSO in the cell medium was 0.5%. After 72 h, samples were removed for cell counts. Total cell number and viability were determined by trypan blue exclusion and manual cell counting on a hemacytometer.

[2] = test system: HL-60 cells, a promyelocytic leukemia cell line; test: cytotoxicity against HL-60 cells (trypan blue exclusion, cell counts after 72 h); assay type: cell-based; conditions: 100 nM to 0.1 nM, 0.5% DMSO
Method: as §1, §2

solubility (solubility in water; water) [µg/mL] | Structure (SMILES) | IC50 relative to that of taxol [1] | IC50 relative to that of taxol [2] | solubility greater than that of taxol (solubility in water) | increase of water solubility relative to taxol (solubility in water; water) [fold]
< 4 | CC(=O)O[C@H]1C(=O)[C@@]2(C)[C@H]([C@H](OC(=O)c3ccccc3)[C@]3(O)C[C@H](OC(=O)[C@H](O)[C@@H](NC(=O)c4ccccc4)c4ccccc4)C(C)=C1C3(C)C)[C@]1(OC(C)=O)CO[C@@H]1C[C@@H]2O [taxol] |  |  |  | 
 | CC(=O)OC1C(=O)C2(C)C(O)CC3OCC3(OC(C)=O)C2C(OC(=O)c2ccccc2)C2(O)CC(OC(=O)C(OC(=O)CCl)C(NC(=O)c3ccccc3)c3ccccc3)C(C)=C1C2(C)C (stereo not drawn) [compound 2, taxol 2′-chloroacetate] | about ten | about ten |  | 
 | CC(=O)O[C@H]1C(=O)[C@@]2(C)C([C@H](OC(=O)c3ccccc3)[C@]3(O)C[C@H](OC(=O)[C@H](OC(=O)CCCCC(=O)O)[C@@H](NC(=O)c4ccccc4)c4ccccc4)C(C)=C1C3(C)C)[C@]1(OC(C)=O)CO[C@@H]1C[C@@H]2O (stereo partly drawn) [taxol 2′-adipic acid, Taxol 2′-adipic acid] |  |  | 1,700 times | 1625
 | C=CC(=O)OC(C(=O)OC1CC2(O)C(OC(=O)c3ccccc3)C3C4(OC(C)=O)COC4CC(O)C3(C)C(=O)C(OC(C)=O)C(=C1C)C2(C)C)C(NC(=O)c1ccccc1)c1ccccc1 (stereo not drawn) [compound 3, Taxol 2′-acrylate] | about ten | about ten |  | 
 | CC(=O)O[C@H]1C(=O)[C@@]2(C)C([C@H](OC(=O)c3ccccc3)[C@]3(O)C[C@H](OC(=O)[C@H](OC(=O)CCCCC(=O)OCC4OC(O)C(O)C(O)C4O)[C@@H](NC(=O)c4ccccc4)c4ccccc4)C(C)=C1C3(C)C)[C@]1(OC(C)=O)CO[C@@H]1C[C@@H]2O (stereo partly drawn) [taxol 2′-(adipoyl)glucose, Taxol 2′-(adipoyl) glucose] |  |  | 60 times | 58
